The subject of data set [1] is HT29 SN38 resistant colon cancer cells. Briefly: Cell viability (MTT assay). The settings on record: for cell viability, % of untreated control cells: HT29 SN38 resistant. It counts as cell-based. The procedure:
(§1) SN38 was applied to a SN38 sensitive colon cancer cell line (“HT29 parental”) and to a SN38 resistant colon cancer cell line (“HT29 SN38 resistant”).
(§2) The Log Concentration (μM) used are—1 for SN38. Data represents cell viability data (MTT assay) and cells were incubated with drugs for 72 hours.
The Log Concentrations (μM) used are—1 for SN38, and 1.5 for both Srpkin340 and Sphinx 31. Data represents cell viability data (MTT assay) and cells were incubated with drugs for 72 hours.
A general note: Tetrazolium dyes change colour on reduction, which living cells bring about.

The test system of data set [2] is HT29 parental colon cancer cells. Briefly: Cell viability (MTT assay). The class given is cell-based. The following applies: SN38 Log Concentration (μM) -1, 72 hours. The procedure: as §1, §2

Regarding `CCc1c2c(nc3ccc(O)cc13)-c1cc3c(c(=O)n1C2)COC(=O)[C@]3(O)CC` [SN38, reference compound], the “cell viability, % of untreated control cells” value in data set [1] (SN38 0.1 μM alone, 72 hours, Example 4) was determined as 75%; in data set [1] (SN38 Log Concentration (μM) -1, 72 hours, Example 3), 73%; in data set [2], 27%.

As to `O=C(Nc1cc(C(F)(F)F)ccc1N1CCN(Cc2ccccn2)CC1)c1ccc(-c2ccncc2)o1` [Sphinx31, reference compound], in data set [1] (Log Concentration (μM) 1.5 of inhibitor with SN38 -1, 72 hours), the “restoration of SN38 sensitivity in SN38 resistant HT29 colon cancer cells” value is “can restore the SN38 sensitivity”.

(Values after patent publication US20210251963A1, “UREA DERIVATIVES FOR USE IN THE TREATMENT OF SUBJECTS WITH ELEVATED EXPRESSION AND/OR ACTIVITY OF SRPK1” (Scandion Oncology A/S, priority 2018, published 2021).)
